Converted amounts (≈) assume the structure as drawn.
Assays:
Candida albicans [1] = experiment: Antifungal activity against Candida albicans SC5314 assessed as inhibition of fungal growth by NCCLS protocol based method; format: functional
Candida albicans [2] = experiment: Antifungal activity against Candida albicans CPCC400523 assessed as inhibition of fungal growth by NCCLS protocol based method; format: functional
Cryptococcus neoformans [3] = experiment: Antifungal activity against Cryptococcus neoformans CGMCC2.3161 assessed as inhibition of fungal growth by NCCLS protocol based method; format: functional
Aspergillus fumigatus = experiment: Antifungal activity against Aspergillus fumigatus CGMCC3.7795 assessed as inhibition of fungal growth by NCCLS protocol based method; format: functional
[4] = Metabolic stability in human liver microsomes assessed as half life at 100 uM in the presence of NADPH measured upto 60 mins by LC-MS/MS analysis; format: ADME, Microsome
Candida tropicalis = experiment: Antifungal activity against Candida tropicalis GIM2.183 assessed as inhibition of fungal growth by NCCLS protocol based method; format: functional
Cryptococcus neoformans [5] = experiment: Antifungal activity against Cryptococcus neoformans GIM2.209 assessed as inhibition of fungal growth by NCCLS protocol based method; format: functional
Candida albicans [6] = experiment: Antifungal activity against Candida albicans GIM2.194 assessed as inhibition of fungal growth by NCCLS protocol based method; format: functional
Pichia kudriavzevii = experiment: Antifungal activity against Candida krusei GIM2.1 assessed as inhibition of fungal growth by NCCLS protocol based method; format: functional
Candida parapsilosis = experiment: Antifungal activity against Candida parapsilosis GIM2.190 assessed as inhibition of fungal growth by NCCLS protocol based method; format: functional; conditions: Lodderomyces parapsilosis
Candida albicans [7] = experiment: Antifungal activity against fluconazole resistant Candida albicans CaR assessed as inhibition of fungal growth by NCCLS protocol based method; format: functional
Candida albicans [8] = experiment: Antifungal activity against fluconazole and itraconazole resistant Candida albicans 17# assessed as inhibition of fungal growth by NCCLS protocol based method; format: functional

| SMILES | MIC (Candida albicans [1]) [µg/mL] | MIC (Candida albicans [2]) [µg/mL] | MIC (Cryptococcus neoformans [3]) [µg/mL] | MIC (Aspergillus fumigatus) [µg/mL] | half-life at 100 µM [4] [min] | MIC (Candida tropicalis) [µg/mL] | MIC (Cryptococcus neoformans [5]) [µg/mL] | MIC (Candida albicans [6]) [µg/mL] | MIC (Pichia kudriavzevii) [µg/mL] | MIC (Candida parapsilosis) [µg/mL] | MIC (Candida albicans [7]) [µg/mL] | MIC (Candida albicans [8]) [µg/mL] |
| --- | --- | --- | --- | --- | --- | --- | --- | --- | --- | --- | --- | --- |
| CC(C)(O)C(Cn1ccnc1)NC(=O)c1ccc(-c2ccccc2)cc1 (stereo not drawn) | 8 (≈ 22.9 µM) | > 64 | > 64 | > 64 | – | – | – | – | – | – | – | – |
| O=C(NC(Cn1ccnc1)C1COC1)c1ccc(-c2ccccc2)cc1 (stereo not drawn) | 8 (≈ 23 µM) | > 64 | > 64 | > 64 | – | – | – | – | – | – | – | – |
| Fc1ccc(C2(Cn3cncn3)COC(c3ccc(-c4ccccc4F)cc3)=N2)c(F)c1 (stereo not drawn) | < 0.03 | – | – | > 64 | – | 0.06 (≈ 0.138 µM) | – | 0.06 (≈ 0.138 µM) | 0.25 (≈ 0.575 µM) | 4 (≈ 9.21 µM) | 0.5 (≈ 1.15 µM) | > 64 |
| c1ccc(-c2ccc(C3=NC(Cn4ccnc4)C(c4ccccc4)O3)cc2)cc1 (stereo not drawn) | > 64 | – | – | > 64 | – | > 64 | > 64 | > 64 | – | – | – | – |
| CN(C)C(=O)C(Cn1ccnc1)NC(=O)c1ccc(-c2ccccc2)cc1 (stereo not drawn) | 4 (≈ 11 µM) | > 64 | > 64 | > 64 | – | – | – | – | – | – | – | – |
| O=C(c1ccc(-c2ccccc2)cc1)N1CCC[C@H]1Cn1ccnc1 | 16 (≈ 48.3 µM) | 32 (≈ 96.6 µM) | > 64 | 8 (≈ 24.1 µM) | – | – | – | – | – | – | – | – |

More lines, main results first:

| MIC (Candida albicans [1]) [µg/mL] | MIC (Candida albicans [2]) [µg/mL] | MIC (Cryptococcus neoformans [3]) [µg/mL] | MIC (Aspergillus fumigatus) [µg/mL] | half-life at 100 µM [4] [min] | MIC (Candida tropicalis) [µg/mL] | MIC (Cryptococcus neoformans [5]) [µg/mL] | MIC (Candida albicans [6]) [µg/mL] | SMILES | MIC (Pichia kudriavzevii) [µg/mL] | MIC (Candida parapsilosis) [µg/mL] | MIC (Candida albicans [7]) [µg/mL] | MIC (Candida albicans [8]) [µg/mL] |
| --- | --- | --- | --- | --- | --- | --- | --- | --- | --- | --- | --- | --- |
| 1 (≈ 3.3 µM) | 8 (≈ 26.4 µM) | > 64 | 1 (≈ 3.3 µM) | 23.2 | – | – | – | c1ccc(-c2ccc(C3=N[C@@H](Cn4ccnc4)CO3)cc2)cc1 | – | – | – | – |
| < 0.125 | – | – | > 64 | – | < 0.125 | > 64 | > 64 | FC(F)(c1ccccc1)C1(Cn2ccnc2)COC(c2ccc(-c3ccccc3)cc2)=N1 (stereo not drawn) | – | – | – | – |
| < 0.03 | < 0.03 | 1 (≈ 2.74 µM) | 2 (≈ 5.47 µM) | 3.6 | – | – | – | CC[C@H](C)[C@@H](Cn1ccnc1)NC(=O)c1ccc(-c2ccccc2)cc1F | – | – | – | – |
| 0.5 (≈ 1.45 µM) | – | – | > 64 | – | < 0.125 | > 64 | > 64 | CC(C)C1OC(c2ccc(-c3ccccc3)cc2)=NC1Cn1ccnc1 (stereo not drawn) | – | – | – | – |
| < 0.03 | < 0.125 | < 0.125 | < 0.125 | – | < 0.125 | < 0.125 | < 0.125 | CCC(C)n1ncn(-c2ccc(N3CCN(c4ccc(OCC5COC(Cn6cncn6)(c6ccc(Cl)cc6Cl)O5)cc4)CC3)cc2)c1=O (stereo not drawn) [ITRACONAZOLE] | < 0.125 | < 0.125 | – | – |
